Residues, ends and D or L forms follow the SMILES beside them. No end group written: not given here. *: point of attachment. Myristoyl = CCCCCCCCCCCCCC(=O)*
What was measured:
IRK [1] = molecular target: T1, IRK (Homo sapiens, UniProt P06213); conditions: cited from earlier work
Akt1 = experiment: Akt kinase activity immunoprecipitated from HEK cells, Crosstide substrate; type: cell-based; conditions: genistein 50 μM added 30 minutes prior to peptide or insulin
Procedure: Cells were serum starved overnight, and treated with myristoylated peptides and insulin as in FIG. 5A. Genistein (50 μM) was added to cells 30 minutes prior to treatment with peptide or insulin. Akt1 was immunoprecipitated from the lysates and kinase activity was measured using Crosstide as substrate.
Thus, Akt kinase activity was measured in cells loaded with either P2 or the scrambled P2 peptide, P2sc. Cell lysates were immunoprecipitated with anti-Akt antibody and immunoprecipitates were examined for phosphorylation of crosstide, an Akt specific substrate.

[2] = molecular target: T2, IRK (insulin receptor β-subunit) (Homo sapiens, UniProt P06213); experiment: IRK kinase activity in vitro towards IRS peptide substrate; type: biochemical; conditions: 20 μM peptide
T2 construct: Insulin receptor β-subunit (IRK); purchased Enzo Life Sciences (Farmingdale, N.Y.)
Procedure: (§1) FIG. 4A depicts P2 stimulate IRK autophosphorylation in vitro. IRK was incubated in vitro with 20 μM of peptide P2 (KYCCSRK (SEQ ID NO: 2)), peptide a (KKRILHC (SEQ ID NO: 5)) or peptide b (KRNRYLSF (SEQ ID NO: 6)) and [^32P]-ATP. The [^32P] incorporation was quantified. FIG. 4B depicts P2 stimulate IRK kinase activity in vitro; identification of IRK inhibitory peptide. A similar assay was performed as in FIG. 4A, except that the IRK peptide substrate was included. FIG. 4C depicts P2 is both a substrate and activator of IRK kinase activity in vitro. Assays using sequence variant (P2Y-F; KFCCSRK (SEQ ID NO: 9)) of P2 were performed as in FIG. 4B. FIG. 4D depicts P2 stimulates IRK kinase activity in the cell; peptide “a” is an inhibitor. […] The activity as measured in four livers of P2 injected and four control mice is shown.
(§2) Purified IRK was assayed as previously (Lerner-Marmarosh et al., 2005, PNAS 102:7109-14), using 300 μM IRS-1 Y608 peptide substrate. IRK autophosphorylation was determined as described earlier (Gibbs et al., 2012, J Biol Chem 287:1066-79). hBVR-based peptides (20 μM) were added as activators or inhibitors. […] Incorporation of ^32P was determined by liquid scintillation counting. […] Immunoprecipitates bound to protein A/G-agarose were washed in lysis buffer, followed by IRK assay buffer, and kinase activity was measured as before (Lerner-Marmarosh et al., 2005, PNAS 102:7109-14). […]

HepG2 cells = experiment: 3H-deoxyglucose uptake in HepG2 cells; type: cell-based; conditions: starved overnight, 1 h treatment
Procedure: FIG. 2A depicts Nanoparticle delivery of peptide P2 to human skeletal muscle (HSKM) cells stimulates glucose uptake. HSKM cells were grown in low glucose, low FBS medium overnight, then media was replaced with PBS containing 1% BSA for 1 h. Cells were pretreated for 2 hours with 20 μM myristoylated P2 or with 10 or 20 μM P2-nanoparticles, followed by measuring 3H-deoxyglucose uptake over a 15 minutes interval. Insulin, when used, was added at the same time as 3H-deoxyglucose. * P<0.05, ** P<0.01. FIG. 2B depicts a time course of glucose uptake stimulation by P2. HSKM cells were starved overnight as in described in FIG. 2A. Medium was changed to glucose-free DMEM with 1% BSA for 1 hour prior to treatment with 20 μM myr-P2 or with P2-nanoparticles for the indicated times. Glucose uptake was measured as in A. FIG. 2C depicts P2-nanoparticles affect glucose uptake in HepG2 cells. HepG2 cells were starved in low glucose DMEM with 0.1% FBS overnight. Treatment with peptide nanoparticles was for 1 h. Glucose uptake was measured as described in FIG. 2A.
Glucose uptake was assessed using 2-deoxy 1-[^3H] glucose as described previously (Lerner-Marmarosh et al., 2005, PNAS 102:7109-14), with modification. […] Radioactivity was measured and normalized to protein concentration. […]

GSK3β = GSK3β phosphorylation in HEK cells (Western blot); type: cell-based; conditions: 40 μM myristoylated peptide 15 minutes or insulin 100 nM
Procedure: FIG. 6A depicts Phosphorylation of GSK3α in P2-stimulated cells. Lysates of cells treated as in FIG. 5A were analyzed by Western blot; the blot was probed sequentially with antibodies to phospho-GSK3α-S21 and GSK3α. The signals were quantified by densitometry. FIG. 6B depicts Phosphorylation of GSK3β in P2-stimulated cells. Identical samples to those in FIG. 6A were probed with anti-phospho-GSK3β-S9 antibody, followed by anti-GSK3β. […] Cells were harvested, lysed in buffer with triton ×100, and whole cell lysates were analyzed for phosphorylated Akt (T^308, S^473) or GSK3 (α-S^21, β-S^9) species by Western blotting. Each blot was stripped and probed with anti-Akt1 or anti GSK3α or GSK3β antibody, as appropriate, to control for loading.

GSK3α = GSK3α phosphorylation in HEK cells (Western blot); type: cell-based; conditions: 40 μM myristoylated peptide 15 minutes or insulin 100 nM
Procedure: FIG. 6A depicts Phosphorylation of GSK3α in P2-stimulated cells. Lysates of cells treated as in FIG. 5A were analyzed by Western blot; the blot was probed sequentially with antibodies to phospho-GSK3α-S21 and GSK3α. The signals were quantified by densitometry. FIG. 6B depicts Phosphorylation of GSK3β in P2-stimulated cells. Identical samples to those in FIG. 6A were probed with anti-phospho-GSK3β-S9 antibody, followed by anti-GSK3β.
HEK cells were incubated in low glucose DMEM with 0.1% FBS, overnight. Cells were treated with 40 μM myristoylated peptide for a total of 15 min; insulin or IGF-1, if used, were included for the final 10 minutes. Cells were harvested, lysed in buffer with triton ×100, and whole cell lysates were analyzed for phosphorylated Akt (T^308, S^473) or GSK3 (α-S^21, β-S^9) species by Western blotting. Each blot was stripped and probed with anti-Akt1 or anti GSK3α or GSK3β antibody, as appropriate, to control for loading.

[3] = test system: human skeletal muscle (HSKM) cells; experiment: 3H-deoxyglucose uptake in human skeletal muscle cells; type: cell-based; conditions: 2 hours treatment, 20 μM peptide (insulin added with 3H-deoxyglucose)
Procedure: Insulin, when used, was added at the same time as 3H-deoxyglucose. * P<0.05, ** P<0.01. […] HSKM cells were starved overnight as in described in FIG. 2A. […] Glucose uptake was measured as in A. […] Treatment with peptide nanoparticles was for 1 h. Glucose uptake was measured as described in FIG. 2A. Cultures of HEK293 were maintained in DMEM with 10% FBS. Cells were starved overnight in medium with 0.1% FBS. When used, insulin was added to serum-starved cultures at 100 nM. Human skeletal muscle cells were maintained in 1:1 DMEM:F12 medium containing 15% FBS. […] Cells were washed 3 times with cold PBS and solubilized in 150 μl 50 mM NaOH. Radioactivity was measured and normalized to protein concentration. Assessments were made in triplicate and experiments were repeated three times.

[4] = molecular target: T2, IRK (insulin receptor β-subunit); experiment: IRK autophosphorylation in vitro ([32P]-ATP); type: biochemical; conditions: 20 μM peptide
Procedure: as §1, §2

IRK [5] = molecular target: T1, IRK; experiment: IRK kinase activity immunoprecipitated from peptide-treated HEK cells; type: cell-based; parameters: IRK was immunoprecipitated from cell lysates and assayed using the IRS peptide as substrate; endogenous in cells; host or cells: HEK293; conditions: 40 μM myristoylated peptide, 15 minutes
Procedure: as §1, §2

For `CCCCCCCCCCCCCC(=O)N[C@@H](CCCCN)C(=O)N[C@@H](Cc1ccc(O)cc1)C(=O)N[C@@H](CS)C(=O)N[C@@H](CS)C(=O)N[C@@H](CO)C(=O)N[C@@H](CCCNC(=N)N)C(=O)N[C@@H](CCCCN)C(=O)O` [P2, myr-KYCCSRK (SEQ ID NO: 2)] (Myristoyl-KYCCSRK-OH; N-terminus and C-terminus assumed), the “Km of the kinase” value (IRK [1]) is given as “without changing Km”.
For `O=c1c(-c2ccc(O)cc2)coc2cc(O)cc(O)c12` [genistein], the “Akt activation by either insulin or P2” value (Akt1) was “prevented Akt activation”.
For KFCCSRK (SEQ ID NO: 9) [P2Y-F], the “effect on IRK kinase activity / substrate phosphorylation” value [2] was “significant decrease in substrate phosphorylation”.
With insulin the glucose uptake (HepG2 cells) was “more robust response”, the “phosphorylation of GSK3β at S9” value (GSK3β) was “enhanced phosphorylation” and the “phosphorylation of GSK3α at S21” value (GSK3α) was “enhanced phosphorylation”. For the same compound, the glucose uptake [3] was “stimulated glucose uptake to about the same extent”.
With “myr-KKRILHC (SEQ ID NO: 5) (Myristoyl-KKRILHC) [peptide (a), BVR based peptide]” the “IRK autophosphorylation ([32P] incorporation)” value [4] was “did not lead to increased [^32P] incorporation” and the “effect on IRK kinase activity in the cell” value (IRK [5]) was “potent inhibitor of the kinase”.
In the case of “myr-KRNRYLSF (SEQ ID NO: 6) (Myristoyl-KRNRYLSF) [peptide (b), BVR based peptide]”, the “IRK autophosphorylation ([32P] incorporation)” value [4] is reported as “did not lead to increased [^32P] incorporation”.

— patent US9907853B2, “Approach to treatment of hyperglycemia using a nanoparticle encapsulated peptide” (University of Rochester, priority 2016, dated 2018)
